# Laboratory results reported in publication PMC12203311, “Design, synthesis, in silico and in vitro evaluation of pyrrole–indole hybrids as dual tubulin and aromatase inhibitors with potent anticancer activities” (RSC Advances, 2025).
# How the values were obtained:
# Assay in all cases: NCI60 five-dose screen
# HL-60 (TB) = type: cell-based; conditions: Homo sapiens, leukemia
# K-562 = type: cell-based; conditions: Homo sapiens, K562, K-562, leukemia
# RPMI-8226 = type: cell-based; conditions: Homo sapiens, RPMI-8226, leukemia
# A549/ATCC = type: cell-based; conditions: Homo sapiens, NSC lung cancer
# EKVX = type: cell-based; conditions: Homo sapiens, NSC lung cancer
# HOP-62 = type: cell-based; conditions: Homo sapiens, HOP-62, NSC lung cancer
# NCI-H23 = type: cell-based; conditions: Homo sapiens, NCI-H23, NSC lung cancer
# NCI-H460 = type: cell-based; conditions: Homo sapiens, NCI-H460, NSC lung cancer
# NCI-H522 = type: cell-based; conditions: Homo sapiens, NCI-H522, NSC lung cancer
# COLO 205 = type: cell-based, human; conditions: Homo sapiens
# HCT-15 = type: cell-based; conditions: Homo sapiens, HCT-15, colon cancer
# SF-295 = type: cell-based; conditions: Homo sapiens, SF-295, CNS cancer
# SNB-19 = type: cell-based; conditions: Homo sapiens, SNB-19, CNS cancer
# SNB-75 = type: cell-based; conditions: Homo sapiens, SNB-75, CNS cancer
# U251 = type: cell-based; conditions: Homo sapiens, U-251, U251, CNS cancer
# LOX IMVI = type: cell-based; conditions: Homo sapiens, melanoma
# SK-MEL-2 = type: cell-based; conditions: Homo sapiens, SK-MEL-2, melanoma
# SK-MEL-28 = type: cell-based; conditions: Homo sapiens, SK-MEL-28, melanoma
# SK-MEL-5 = type: cell-based, human; conditions: Homo sapiens
# UACC-257 = type: cell-based; conditions: Homo sapiens, UACC-257, melanoma
# UACC-62 = type: cell-based; conditions: Homo sapiens, UACC-62, melanoma
# IGROV1 = type: cell-based; conditions: Homo sapiens, IGROV-1; IGROV1, ovarian cancer
# OVCAR-3 = type: cell-based; conditions: Homo sapiens, OVCAR-3, ovarian cancer
# OVCAR-4 = type: cell-based; conditions: Homo sapiens, OVCAR-4, ovarian cancer
# OVCAR-8 = type: cell-based; conditions: Homo sapiens, OVCAR-8, ovarian cancer
# NCI/ADR-RES = type: cell-based, human; conditions: Homo sapiens, ovarian cancer
# SK-OV-3 = type: cell-based; conditions: Homo sapiens, SK-OV-3, ovarian cancer
# ACHN = type: cell-based; conditions: Homo sapiens, renal cancer
# CAKI-1 = type: cell-based; conditions: Homo sapiens, CAKI-1, renal cancer
# SN12C = type: cell-based; conditions: Homo sapiens, renal cancer
# TK-10 = type: cell-based; conditions: Homo sapiens, TK-10, renal cancer
# PC-3 = type: cell-based; conditions: Homo sapiens, PC-3, prostate cancer
# DU-145 = type: cell-based; conditions: Homo sapiens, DU-145, prostate cancer
# MCF7 = type: cell-based; conditions: Homo sapiens, MCF7, breast cancer
# MDA-MB-231/ATCC = type: cell-based; conditions: Homo sapiens, breast cancer
# BT-549 = type: cell-based; conditions: Homo sapiens, BT-549, breast cancer
# [1] = read-out: LC50 (the source's name)
smiles,measurement,setting,value
"O=C(N/N=C/c1cc(Br)c(Br)[nH]1)c1[nH]c2ccc(Br)cc2c1-c1ccccc1 [Derivative 3f, (E)-5-Bromo-N′-((4,5-dibromo-1H-pyrrol-2-yl)methylene)-3-phenyl-1H-indole-2-carbohydrazide]",GI50,HL-60 (TB),2.38 µM
same,CC50,HL-60 (TB); [1],88.8 µM
same,GI50,K-562,1.93 µM
same,CC50,K-562; [1],76.4 µM
same,GI50,RPMI-8226,2.27 µM
same,CC50,RPMI-8226; [1],> 100 µM
same,GI50,A549/ATCC,3.11 µM
same,CC50,A549/ATCC; [1],37.6 µM
same,GI50,EKVX,3.45 µM
same,CC50,EKVX; [1],44.8 µM
same,GI50,HOP-62,3.52 µM
same,CC50,HOP-62; [1],> 100 µM
same,GI50,NCI-H23,2.62 µM
same,CC50,NCI-H23; [1],34 µM
same,GI50,NCI-H460,2.53 µM
same,CC50,NCI-H460; [1],32.7 µM
same,GI50,NCI-H522,0.623 µM
same,CC50,NCI-H522; [1],23.2 µM
same,CC50,"COLO 205; COLO 205, COLO 205, colon cancer, read-out: LC50 (the source's name)",48.8 µM
same,GI50,"COLO 205; COLO 205, colon cancer",3.36 µM
same,GI50,HCT-15,2.7 µM
same,CC50,HCT-15; [1],33.1 µM
same,GI50,SF-295,2.2 µM
same,CC50,SF-295; [1],26.9 µM
same,GI50,SNB-19,3.47 µM
same,CC50,SNB-19; [1],39.3 µM
same,GI50,SNB-75,1.08 µM
same,CC50,SNB-75; [1],64.4 µM
same,GI50,U251,2.95 µM
same,CC50,U251; [1],36 µM
same,GI50,LOX IMVI,2.31 µM
same,CC50,LOX IMVI; [1],31.8 µM
same,GI50,SK-MEL-2,2.68 µM
same,CC50,SK-MEL-2; [1],36.3 µM
same,GI50,SK-MEL-28,5.1 µM
same,CC50,SK-MEL-28; [1],47 µM
same,CC50,"SK-MEL-5; SK-MEL-5, SK-MEL-5, melanoma, read-out: LC50 (the source's name)",8.65 µM
same,GI50,"SK-MEL-5; SK-MEL-5, melanoma",1.72 µM
same,GI50,UACC-257,3.24 µM
same,CC50,UACC-257; [1],45.7 µM
same,GI50,UACC-62,1.2 µM
same,CC50,UACC-62; [1],38 µM
same,GI50,IGROV1,0.53 µM
same,GI50,OVCAR-3,2.3 µM
same,CC50,OVCAR-3; [1],24.5 µM
same,GI50,OVCAR-4,5.2 µM
same,CC50,OVCAR-4; [1],45.8 µM
same,GI50,OVCAR-8,1.98 µM
same,CC50,OVCAR-8; [1],17.2 µM
same,GI50,NCI/ADR-RES,1.14 µM
same,CC50,NCI/ADR-RES; [1],9.73 µM
same,GI50,SK-OV-3,4.76 µM
same,CC50,SK-OV-3; [1],72.5 µM
same,GI50,ACHN,2.59 µM
same,CC50,ACHN; [1],35.5 µM
same,GI50,CAKI-1,1.38 µM
same,CC50,CAKI-1; [1],40.9 µM
same,GI50,SN12C,2.15 µM
same,CC50,SN12C; [1],30.7 µM
same,GI50,TK-10,6.8 µM
same,CC50,TK-10; [1],49.5 µM
same,GI50,PC-3,2.29 µM
same,CC50,PC-3; [1],63.3 µM
same,GI50,DU-145,3.18 µM
same,CC50,DU-145; [1],33.9 µM
same,GI50,MCF7,1.99 µM
same,CC50,MCF7; [1],33.7 µM
same,GI50,MDA-MB-231/ATCC,2.49 µM
same,CC50,MDA-MB-231/ATCC; [1],26.3 µM
same,GI50,BT-549,3.69 µM
same,CC50,BT-549; [1],90.8 µM
